Data on 14 molecules can be found in ChEMBL document CHEMBL3792279, “Design, synthesis, and evaluation of hinge-binder tethered 1,2,3-triazolylsalicylamide derivatives as Aurora kinase inhibitors” (Bioorg Med Chem, 2016).

In one assay the target is T1, Aurora kinase A (Homo sapiens, UniProt O14965).
T1 sequence (O14965 whole entry): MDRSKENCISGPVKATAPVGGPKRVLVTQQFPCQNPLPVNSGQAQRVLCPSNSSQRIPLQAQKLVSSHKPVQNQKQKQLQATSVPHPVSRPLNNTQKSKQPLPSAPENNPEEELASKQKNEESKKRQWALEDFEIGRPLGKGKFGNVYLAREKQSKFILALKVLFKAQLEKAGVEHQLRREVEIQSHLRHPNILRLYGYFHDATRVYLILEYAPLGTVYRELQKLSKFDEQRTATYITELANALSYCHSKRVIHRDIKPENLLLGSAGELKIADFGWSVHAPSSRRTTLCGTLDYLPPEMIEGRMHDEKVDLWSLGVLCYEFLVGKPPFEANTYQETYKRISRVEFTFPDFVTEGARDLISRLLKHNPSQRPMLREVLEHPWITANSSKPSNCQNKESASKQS
Kind of assay: Inhibition of human Aurora A using H-LRRASLG as substrate after 2 hrs by HotSpot assay in presence of 33P-ATP and 10 uM ATP.

The target in a further assay is Aurora kinase B (Homo sapiens, UniProt Q96GD4). Kind of assay: Inhibition of human Aurora B using H-LRRASLG as substrate after 2 hrs by HotSpot assay in presence of 33P-ATP and 10 uM ATP.

Molecules are shown by their SMILES. pIC50: −log10 of the molar value.

Aurora kinase B, sequence (Q96GD4 whole entry): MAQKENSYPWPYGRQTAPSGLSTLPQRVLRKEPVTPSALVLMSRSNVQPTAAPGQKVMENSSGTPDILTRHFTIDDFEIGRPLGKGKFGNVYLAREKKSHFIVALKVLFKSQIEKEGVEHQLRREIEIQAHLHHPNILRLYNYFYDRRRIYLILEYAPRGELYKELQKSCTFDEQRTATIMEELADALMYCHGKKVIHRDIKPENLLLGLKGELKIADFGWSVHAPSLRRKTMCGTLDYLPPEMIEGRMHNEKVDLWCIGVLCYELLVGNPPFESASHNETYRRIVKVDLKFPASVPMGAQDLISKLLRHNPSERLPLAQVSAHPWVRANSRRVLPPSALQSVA

In the case of `COC(=O)c1cccc(NC(=O)c2cc(-n3cc(-c4ccc5c(c4)OCO5)nn3)ccc2O)c1`, the pIC50 at Aurora kinase A is 6.20; at Aurora kinase B it was 5.66.

As to `COC(=O)c1cccc(NC(=O)c2cc(-n3cc(CNc4ccccc4)nn3)ccc2O)c1`, the pIC50 is 5.29 on Aurora kinase A and 4.44 on Aurora kinase B.

Regarding `COC(=O)c1cccc(NC(=O)c2cc(-n3cc(CNc4cc(C)on4)nn3)ccc2O)c1`, the pIC50 on Aurora kinase A is 4.91; at Aurora kinase B, 4.26.

For `COC(=O)c1cccc(NC(=O)c2cc(-n3cc(CNc4ncccn4)nn3)ccc2O)c1`, the pIC50 on Aurora kinase A is 4.81; on Aurora kinase B it was 4.39.

Turning to `COC(=O)c1cccc(NC(=O)c2cc(-n3cc(CNc4cc(C)[nH]n4)nn3)ccc2O)c1`, the negative-log IC50 (pIC50) at Aurora kinase A was 4.86; at Aurora kinase B it was 4.31.

Regarding `COC(=O)c1cccc(NC(=O)c2cc(-n3cc(CNc4ncnc5ccsc45)nn3)ccc2O)c1`, the pIC50 was 6.10 on Aurora kinase A and 4.70 on Aurora kinase B.

For `COC(=O)c1cccc(NC(=O)c2cc(-n3cc(CCNc4ncnc5ccsc45)nn3)ccc2O)c1`, the pIC50 on Aurora kinase A is 5.53; on Aurora kinase B, 6.44.

Turning to `COC(=O)c1cccc(NC(=O)c2cc(-n3cc(-c4ccc5nccnc5c4)nn3)ccc2O)c1`, the negative-log IC50 (pIC50) on Aurora kinase A is 6.22; on Aurora kinase B it was 5.14.

`COC(=O)c1cccc(NC(=O)c2cc(-n3cc(CNc4nc5ccccc5o4)nn3)ccc2O)c1`: the negative-log IC50 (pIC50) is 5.45 at Aurora kinase A and 4.99 at Aurora kinase B.

In the case of `COC(=O)c1cccc(NC(=O)c2cc(-n3cc(CNc4cc(C)ccn4)nn3)ccc2O)c1`, the negative-log IC50 (pIC50) on Aurora kinase A was 5.22; on Aurora kinase B it was 4.79.

Turning to `COC(=O)c1cccc(NC(=O)c2cc(-n3cc(-c4cccc([N+](=O)[O-])c4)nn3)ccc2O)c1`, the negative-log IC50 (pIC50) at Aurora kinase A was 6.55; on Aurora kinase B, 5.88.

Regarding `COC(=O)c1cccc(NC(=O)c2cc(-n3cc(CCNc4ncccn4)nn3)ccc2O)c1`, the negative-log IC50 (pIC50) at Aurora kinase A was 5.12; on Aurora kinase B, 4.82.

Consider `COC(=O)c1cccc(NC(=O)c2cc(-n3cc(-c4cc(OC)cc(OC)c4)nn3)ccc2O)c1`, for which the pIC50 at Aurora kinase A is 6.11; at Aurora kinase B, 5.23.

Regarding `COC(=O)c1cccc(NC(=O)c2cc(-n3cc(CNc4ccccn4)nn3)ccc2O)c1`, the figures for the pIC50 at Aurora kinase A and at Aurora kinase B were 5.19 and 4.49, respectively.

Usually pIC50 stands for the IC50 on a negative log10 scale, so that one unit is a factor of ten.
